According to patent US11529397B2, “Method of treating mucopolysaccharidosis type IVA” (Saint Louis University, priority 2018, dated 2022):

Columns and labels:
splenocytes [1] = assay: Cytokine production by splenocytes after in vitro stimulation (Example 3); assay type: cell-based, mouse; details: splenocytes of MKC mice treated by ERT with GALNS; culture supernatant
Method: (§1) Mice (MKC) genetically engineered not to express GALNS were used in these examples. […] 200 μl of the emulsion were administered as a subcutaneous injection. […] Control mice (n=2) were immunized with PBS emulsified in CFA and IFA respectively (Chung et al. (2005) J. Leukoc Biol. 77(6):906-13)). […] A control group (n=5) received PBS (Tomatsu et al. (2008) Hum Mol Genet. 15; 17(6):815-24). […]
The production of cytokines after peptide stimulation was evaluated as intracellular staining (by flow cytometry) and secreted cytokines (by LUMINEX). […] The cells were treated with 1 μl of a protein transport inhibitor BD GolgiPlug™ during 5 h at 37° C., saturated humidity and 5% CO2. The suspension of cells was centrifuged at 1000 rpm during 10 minutes. The supernatants were collected by further analysis with LUMINEX. The Fc receptors were blocked with 1 μl of α-mouse CD16/32 (e-Bioscience) during 15 min at 4° C. After washing, the cells were stained with PE-Cy7-labeled anti-mouse CD4 and Alexa700-labeled anti-mouse CD8 antibodies during 30 min at 4° C. After two washes, cells were permeabilized with a BD fixation/permeabilization solution during 20 min at 4° C. Cells were washed two times and stained with a cocktail of antibodies for intracellular staining (PE-labeled anti-mouse IL-4, APC-labeled anti-mouse IL-5 and FITC-labeled anti-mouse IFN-γ). After two washes, cells were analyzed by flow cytometry. Secreted cytokines (IL-4, IL-5, IL-13, IL-17 and IFN-γ) in the collected supernatants were detected by using a bead immunoassay kit which allows the measurement of multiple proteins simultaneously (LUMINEX technology, using a Millipore Milliplex™ kit).

splenocytes [2] = assay: Splenocyte proliferation after in vitro stimulation with peptides or GALNS (Examples 2, 4); assay type: cell-based, mouse; details: for proliferation of splenocytes relative to age of the animal and length of treatment: MKC mice, weeks of infusion; for splenocyte proliferation response: splenocytes of MKC mice treated by ERT with GALNS, in vitro peptide stimulation
Method: as §1
Ten days after the last immunization or the last infusion, the mice were euthanized and the spleen was aseptically removed. […] The suspension was centrifuged at 1000 rpm […]. The red blood cells were lysed using a hypotonic lysis buffer (Sigma® R7757). […] Cells were pulsed with 1 JpCi of [3H]thymidine for the last 18 h of incubation. [3H]thymidine incorporation was measured by […] (Trilux Microbeta Counter). The Stimulation Index (SI) was calculated as the mean value of the three wells for each condition divided by the mean value of the unstimulated cells (Mirano-Bascos (2010) J Virol. 84(7):3303-11).

splenocytes [3] = assay: Screening of peptides by splenocytes proliferation, retest in MKC mice (Examples 5-6); assay type: cell-based, mouse; details: MKC mice, 16, 22 and 24 infusions; with higher number of infusions
Method: of body weight through the tail vein. A control group received PBS. […] The suspension was centrifuged at 1,000 rpm during 10 minutes. […] The specificity of cellular response against the peptides or the complete enzyme in the in vitro stimulation was determined by splenocyte proliferation or cytokine secretion in ERT treated mice or PBS injected control mice. […] 3H-Thymidine incorporation was measured by β-Scintillation counter (Trilux Microbeta Counter). Proliferation data are expressed as counts per minute (cpm) values (FIG. 5). (Mirano-Bascos et al. (2010) J Virol. 84(7): p. 3303-11).

splenocytes [4] = assay: Secreted cytokines of splenocytes in Morquio A mouse models and WT mice treated by ERT (Examples 10-13); assay type: cell-based; details: for IL-4 secretion / IL-5 secretion: MTol mice
Method: (§2) Morquio A mouse models: a). […] 14(22): p. 3321-35).c). Missense mutation mice (Galnstm (C76S) SLU C2) (Tomatsu et al. (2007) Mol Genet Metab., 91(3): p. 251-8), and wild-type C57BL6 mice were treated by ERT. […] A control group received PBS.
(§3) The suspension was centrifuged at 1,000 rpm during 10 minutes.
(§4) Cytokines were determined in the cell culture supernatants. […] Cells were centrifuged at 1000 rpm during 10 min. Secreted cytokines (IL-4, IL-5, IL-13, and IFN-γ) in the collected supernatants were detected by a bead immunoassay kit which allow the measurement of multiple proteins simultaneously (LUMINEX xMAP Technology, using a Millipore Milliplex™ kit) according to manufacturer's instructions.

splenocytes [5] = assay: Splenocytes proliferation in Morquio A mouse models and WT mice treated by ERT (Example 9); assay type: cell-based
Method: as §2, §3
Thymidine incorporation was measured by β-Scintillation counter (Trilux Microbeta Counter) Mirano-Bascos, et al. (2010) J Virol. 84(7): p. 3303-11).

splenocytes [6] = assay: Secreted cytokine profile of splenocytes, retest in MKC mice (Example 7); assay type: cell-based, mouse; details: for IL-5 secretion, ERT treated vs PBS controls, p or significance / IL-13 secretion, ERT treated vs PBS controls, p or significance / profile of secreted cytokines, ERT treated vs PBS treated mice: MKC mice; for profile of secreted cytokines, ERT treated vs PBS treated mice: 16 i.v. infusions
Method: The predicted peptides from Example 1 were reevaluated in MKC mice to reaffirm the selection of peptides 4, 8, and 10. […] A control group received PBS. […] The suspension was centrifuged at 1,000 rpm during 10 minutes. […] The specificity of cellular response against the peptides or the complete enzyme in the in vitro stimulation was determined by splenocyte proliferation or cytokine secretion in ERT treated mice or PBS injected control mice.
as §4, with “1,000” for “1000”, “instructions (FIG. 5).” for “instructions.”

Row | Sequence | secretion of cytokines IL-5 and IFN-γ (splenocytes [1]) | proliferation of splenocytes relative to age of the animal and length of treatment (splenocytes [2]) | splenocyte proliferation response (splenocytes [2]) | relationship between number of weekly i.v. infusions and cpm values of splenocytes proliferation (splenocytes [3]) | IL-4 secretion (splenocytes [4]) | IL-5 secretion (splenocytes [4]) | IFN-γ secretion compared with the other stimuli (splenocytes [4]; mice treated by ERT) | splenocytes proliferation, ERT treated vs PBS controls (splenocytes [5]; C2 mice) | splenocytes proliferation, ERT treated vs PBS controls (splenocytes [5]; MKC mice) | splenocytes proliferation, ERT treated vs PBS controls (splenocytes [5]; WT mice) | IL-5 secretion, ERT treated vs PBS controls, p or significance (splenocytes [6]) | IL-13 secretion, ERT treated vs PBS controls, p or significance (splenocytes [6]) | levels of secreted IFN-γ among the peptides and GALNS (splenocytes [6]; MKC mice treated by ERT) | profile of secreted cytokines, ERT treated vs PBS treated mice (splenocytes [6]) | IFN-γ secretion, MKC vs MTol mice treated by ERT, p or significance (splenocytes [4]) | IFN-γ secretion, ERT treated vs PBS controls of the same strain (splenocytes [4]; all mice (MKC, C2, WT, MTol)) | IL-5 secretion, ERT treated vs PBS controls (splenocytes [4]; any of the mice models)
1 | PNCHFGPYDNKARPNIPVYR (listed as Homo sapiens) [Peptide C4] | strong response | highest response at 16 weeks | strong response | lower levels of proliferation | did not present secretion of IL-4 | did not present secretion of IL-5 | strongest response | statistically significant difference | statistically significant | statistically significant difference | 0.028 | not statistically significant | highest levels | statistically significant difference |  |  | 
2 | FFLYWAVDATHAPVYASKPF (listed as Homo sapiens) [Peptide E8] | strong response | highest response at 16 weeks | strong response | lower levels of proliferation | did not present secretion of IL-4 | did not present secretion of IL-5 |  | statistically significant difference | statistically significant | statistically significant difference | did not induce a significant IL-5 response | not statistically significant |  | statistically significant difference | not statistically significant | statistically significant levels | did not induce IL-5 secretion
